The subject of assay [1] is MDA-MB-468. The settings on record: 72 h. The method, boiled down:
(§1)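 The plates used were 384-well plates holding compound at 5 concentrations in 10-fold steps across a compound-specific 10,000-fold range, into which breast cancer cell lines were seeded in 20 µl suspension. Following 72 h incubation, CellTox Green fluorescence was read at 485/520 nm, and CellTiter-Glo luminescence was read after 10 min at room temperature. Normalisation on each plate used 0.1 % DMSO and a positive kill control. Dose-response curves gave the EC50, which was censored at the top concentration.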

Assay [2] deals with BT-549. The note with it: 72 h. The gist of the method: as §1
Assay [3] relates to MDA-MB-436. The note with it: 72 h. The method, boiled down: as §1
Assay [4] has as its system CAL-51. The settings on record: 72 h. The gist of the method:
as §1

In assay [5] the test system is MDA-MB-453. As to the kind of experiment: normalised response (% of control), CellTiter-Glo; higher = more viable cells (100 = DMSO, 0 = benzethonium chloride kill control). The note with it: incubation time: 72 h. The method, boiled down:
(§2)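 Every value is a normalised signal taken at one concentration of a dilution series. Compound was placed in 384-well plates at 5 concentrations in 10-fold steps over a compound-specific 10,000-fold range, and 20 µl of breast cancer cell suspension was seeded onto it. After 72 h, CellTox Green fluorescence (485/520 nm) was measured first and CellTiter-Glo luminescence second, following 10 min at room temperature. Each plate was scaled to 0.1 % DMSO (100) and a positive kill control (0).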
(In general: ATP-based viability assays read luminescence as a measure of living cells.)

The subject of assay [6] is BT-474. The assay is described as above. The settings on record: incubation time: 72 h. The method, boiled down:
as §2

For assay [7], the system named is HCC1937. Described as above. The note with it: incubation time: 72 h. The gist of the method:
as §2

Assay [8] has as its system CAL-85-1. The description is as above. The settings on record: incubation time: 72 h. The gist of the method:
as §2

Assay [9] concerns DU-4475. Described as above. The note with it: incubation time: 72 h. The method, boiled down: as §2
The subject of assay [10] is MFM-223. The description is as above. The settings on record: incubation time: 72 h. The gist of the method: as §2
The subject of assay [11] is MDA-MB-468. Described as above. The note with it: incubation time: 72 h. The gist of the method: as §2
Assay [12] relates to SK-BR-3. Described as above. The settings on record: incubation time: 72 h. The gist of the method:
as §2

Assay [13] concerns HCC1599. Described as above. The settings on record: incubation time: 72 h. The gist of the method:
as §2

In assay [14] the test system is MDA-MB-436. The description is as above. The note with it: incubation time: 72 h. The gist of the method:
as §2

The test system of assay [15] is CAL-148. Described as above. The settings on record: incubation time: 72 h. The gist of the method:
as §2

The subject of assay [16] is MDA-MB-231. Described as above. The note with it: incubation time: 72 h. The method, boiled down: as §2
The subject of assay [17] is CAL-51. The description is as above. The note with it: incubation time: 72 h. The method, boiled down: as §2
The test system of assay [18] is CAL-120. The settings on record: 72 h. The gist of the method:
as §1

SMILES strings stand for the structures.

As for `Cc1c(Cn2c(C)nc3c(C(=O)O)cc(N4CCOCC4)cc32)cccc1C(F)(F)F`, the “EC50, CellTiter-Glo” value in assay [1] is 534 nM; in assay [2], 53.6 nM; in assay [3] it was > 10000 nM; in assay [4] it was 8.16 nM.

`COc1ccc(-c2cc3c(C)nc(N)nc3n([C@H]3CC[C@H](OCCO)CC3)c2=O)cn1` (1000 nM): the normalised response is 12.9% in assay [5]; 34.7% in [6]; 38.7% in assay [7]; 20.7% in assay [8]; 48% in [9]; 26.2% in assay [10]. The normalised response in assay [11] was 20.5%; in assay [12], 14.2%; in assay [13], 57.1%; in assay [14], 37.5%; in assay [15], 26.2%; in [16], 24.7%. This molecule had a normalised response in assay [17] of 10%.

On to `COc1cc(CCc2cc(NC(=O)c3ccc(N4CC(C)NC(C)C4)cc3)n[nH]2)cc(OC)c1` (stereo not drawn) [AZD4547] (100 nM), for which the normalised response in [5] amounted to 90.4%; in assay [6] it was 102%; in [7], 93.4%; in assay [8] it was 96.2%; in assay [9], 96.9%; in assay [10], 53.1%. For the same molecule, the normalised response in assay [11] worked out at 92.2%; in assay [12] it was 89.3%; in assay [13] it was 107%; in assay [14] it was 99.2%; in assay [15], 104%; in assay [16] it was 106%. Also, the normalised response in assay [17] was found to be 91.4%.

For the molecule `CCC/C=C/C=C/C(=O)O[C@H]1/C(=C/C(=O)OC)C[C@H]2C[C@H]([C@@H](C)O)OC(=O)C[C@H](O)C[C@@H]3C[C@H](OC(C)=O)C(C)(C)[C@](O)(C[C@@H]4C/C(=C/C(=O)OC)C[C@H](/C=C/C(C)(C)[C@]1(O)O2)O4)O3` [Bryostatin 1] (10 nM), the normalised response is 96.8% in [5]; 87.2% in assay [6]; 97.8% in assay [7]; 97.1% in assay [8]; 93.7% in assay [9]; 108% in assay [10]. Also, the normalised response came out at 100% in [11]; 69.7% in [12]; 111% in assay [13]; 99.6% in assay [14]; 109% in [15]; 89.2% in [16]. This molecule yielded a normalised response in assay [17] of 69.1%.

As for `CO[C@@H](C(=O)N1Cc2[nH]nc(NC(=O)c3ccc(N4CCN(C)CC4)cc3)c2C1)c1ccccc1` [Danusertib] (1000 nM), the normalised response in assay [5] was determined as 156%; in assay [6] it was 75.6%; in assay [7] it was 89.3%; in assay [8], 90.8%; in [9] it was 83.7%; in assay [10], 43.2%. Also, the normalised response was 33.6% in assay [11]; 91.2% in assay [12]; 105% in assay [13]; 80.9% in assay [14]; 72.2% in [15]; 74.7% in assay [16]. This molecule had a normalised response in assay [17] of 59.9%.

As for `Cc1nc(Nc2ncc(C(=O)Nc3c(C)cccc3Cl)s2)cc(N2CCN(CCO)CC2)n1` [Dasatinib] (100 nM), the normalised response was determined as 100% in assay [5]; 54.8% in assay [6]; 69.7% in assay [7]; 61.8% in assay [8]; 100% in [9]; 88.5% in [10]. In addition, the normalised response was 75.4% in assay [11]; 104% in assay [12]; 118% in [13]; 83.4% in [14]; 102% in assay [15]; 43.8% in assay [16]. The same molecule gave a normalised response in assay [17] of 51.6%.

As to `Cc1c(CN2CCN(C(=O)[C@H](C)O)CC2)sc2c(N3CCOCC3)nc(-c3cnc(N)nc3)nc12` [GDC-0980] (1000 nM), the normalised response in [5] was 20.4%; in [6], 57%; in [7] it was 70.8%; in assay [8], 37.5%; in [9], 75.9%; in assay [10], 35.8%. In addition, the normalised response in [11] was determined as 54.4%; in assay [12], 21.6%; in [13], 85.5%; in assay [14] it was 59.3%; in assay [15], 35.9%; in assay [16] it was 52%. The normalised response in assay [17] was determined as 30.9%.

Take `Cc1cccc(-c2nn3c(c2-c2ccnc4ccc(C(N)=O)cc24)CCC3)n1` [Galunisertib]: the “EC50, CellTiter-Glo” value in [4] is > 1000 nM.

For `Nc1cccc2c1CN(C1CCC(=O)NC1=O)C2=O` (stereo not drawn) [Lenalidomide], in assay [18], the “EC50, CellTiter-Glo” value was > 10000 nM.

In the case of `Nc1cccc2c1CN(C1CCC(=O)NC1=O)C2=O` (stereo not drawn) [Lenalidomide] (1000 nM), the normalised response stood at 87.1% in assay [5]; 97.7% in assay [6]; 100% in assay [7]; 108% in assay [8]; 102% in assay [9]; 97.6% in [10]. Further, the normalised response in assay [11] came to 111%; in [12], 101%; in [13] it was 116%; in assay [14] it was 99.9%; in [15] it was 98.2%; in assay [16], 105%. This molecule also had a normalised response in assay [17] of 99%.

Turning to `C[C@]12O[C@H](C[C@]1(O)CO)n1c3ccccc3c3c4c(c5c6ccccc6n2c5c31)CNC4=O` [Lestaurtinib] (100 nM), the normalised response in assay [5] stood at 64.4%; in assay [6] it was 83.6%; in assay [7] it was 91%; in assay [8], 94.9%; in assay [9] it was 74.1%; in assay [10], 80.9%. The normalised response in assay [11] was 49.7%; in assay [12], 62.4%; in [13], 67.2%; in assay [14], 86%; in [15] it was 83.9%; in [16] it was 92.1%. In addition, the normalised response in [17] was found to be 83.8%.

With `O=C1c2c(O)ccc(O)c2C(=O)c2c(NCCNCCO)ccc(NCCNCCO)c21` [Mitoxantrone] (100 nM), the normalised response in assay [5] amounted to 107%; in [6], 94.3%; in assay [7], 97.3%; in [8], 101%; in assay [9], 86.2%; in assay [10], 99.7%. Besides, the normalised response is 92.4% in assay [11]; 99.2% in [12]; 120% in [13]; 69.8% in [14]; 85.6% in assay [15]; 103% in assay [16]. Also, in assay [17], the normalised response stood at 93.8%.

Source of the values: the supplement of paper PMC4862054.
